The source of these data is ChEMBL document CHEMBL5236617, “Rapid Evolution of a Fragment-like Molecule to Pan-Metallo-Beta-Lactamase Inhibitors: Initial Leads toward Clinical Candidates” (J Med Chem, 2022).

Series [1] in a line: Inhibition of GST-tagged bacterial beta-lactamase […] expressed in Escherichia coli BL21(DE3) using CCF2-FA as substrate by fluorescence assay. Also on record: species or system Bacteria.
The nature of series [2]: Selectivity ratio of MITC50 for IMP-1 expressing Serratia marcescens to IC50 for GST-tagged bacterial beta-lactamase IMP-1.
Series [3] can be described thus: Selectivity ratio of MITC50 for VIM-1 expressing Klebsiella pneumoniae to IC50 for GST-tagged bacterial beta-lactamase VIM-1.
Series [4] is described as follows: Inhibition of GST-tagged bacterial beta-lactamase VIM-1 expressed in Escherichia coli BL21(DE3) using CCF2-FA as substrate by fluorescence assay. Details: species or system Bacteria.
Series [5] is described as follows: Selectivity ratio of MITC50 for NDM-1 expressing Escherichia coli to IC50 for GST-tagged bacterial beta-lactamase […].
Series [6] can be described thus: Inhibition of GST-tagged bacterial beta-lactamase IMP-1 expressed in Escherichia coli BL21(DE3) using CCF2-FA as substrate by fluorescence assay. Also on record: species or system Bacteria.
Series [7] has as its system Escherichia coli. Description: Antibacterial activity against Escherichia coli CLB30005 expressing NDM-1 assessed as growth inhibition in presence of ZnSO4. In kind it is functional, organism-based.
In series [8] the test system is Escherichia coli. Description: Potentiation of imipenem-induced antibacterial activity against NDM-1 expressing Escherichia coli assessed as imipenem MIC incubated for 22 to 24 hrs (reference value: 32 ug/ml). In kind it is functional. The conditions noted are these: time 22-24 hrs.
For series [9], the system named is Serratia marcescens. Description: Potentiation of imipenem-induced antibacterial activity against IMP-1 expressing Serratia marcescens assessed as imipenem MIC incubated for 22 to 24 hrs (reference value: 16 ug/ml). In kind it is functional. The conditions noted are these: time 22-24 hrs.
Series [10] deals with Klebsiella pneumoniae. Put plainly: Potentiation of imipenem-induced antibacterial activity against VIM-1 expressing Klebsiella pneumoniae assessed as imipenem MIC incubated for 22 to 24 hrs (reference value: 16 ug/ml). The class given is functional. As to conditions: time 22-24 hrs.
Series [11] in a line: Cmax in mouse at 50 mg/kg, sc. The conditions noted are these: in vivo. Details: dose 50 mg/kg, route sc. The class given is ADME, organism-based.
The target of series [12] is T1, PXR (NR1I2) (Homo sapiens, UniProt O75469).
T1 sequence (O75469 whole entry): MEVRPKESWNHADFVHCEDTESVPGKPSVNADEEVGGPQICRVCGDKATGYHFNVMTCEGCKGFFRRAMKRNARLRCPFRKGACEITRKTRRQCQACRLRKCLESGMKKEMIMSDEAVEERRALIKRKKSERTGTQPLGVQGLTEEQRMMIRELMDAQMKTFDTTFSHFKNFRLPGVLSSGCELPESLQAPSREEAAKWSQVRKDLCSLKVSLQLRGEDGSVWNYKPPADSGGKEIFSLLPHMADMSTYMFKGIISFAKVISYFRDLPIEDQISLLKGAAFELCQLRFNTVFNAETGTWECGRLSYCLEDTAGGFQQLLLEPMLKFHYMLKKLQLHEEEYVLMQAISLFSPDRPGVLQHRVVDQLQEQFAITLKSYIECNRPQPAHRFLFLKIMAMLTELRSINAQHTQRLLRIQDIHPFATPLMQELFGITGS
Description: Inhibition of human PXR at 30 uM relative to control.

Series [13] is described as follows: Plasma protein binding in C57BL/6 mouse assessed as unbound fraction. The class given is ADME, cell-free.
Series [14] is described as follows: Cmax in mouse at 10 mg/kg, sc. The class given is ADME, organism-based. Also on record: dose 10 mg/kg, route sc. As to conditions: in vivo.
Series [15] can be described thus: AUC in mouse at 10 mg/kg, sc. The conditions noted are these: in vivo. The class given is ADME, organism-based. Details: dose 10 mg/kg, route sc.
A short description of series [16]: AUC in mouse at 5 mg/kg, iv. In kind it is ADME, organism-based. Also on record: dose 5 mg/kg, route iv. As to conditions: in vivo.
Series [17] addresses CYP3A4 (Homo sapiens, UniProt P08684). Description: in vitro.
Description: Selectivity ratio of time dependent inhibition of CYP3A4 (unknown origin) in presence of NADPH to time dependent inhibition of CYP3A4 (unknown origin) in absence of NADPH
For series [18], the target named is Cytochrome P450 2D6 (Homo sapiens, UniProt P10635). Description: Reversible inhibition of CYP2D6 (unknown origin). In kind it is ADME.
Series [19] has as its target Cytochrome P450 3A4 (Homo sapiens, UniProt P08684). Description: Reversible inhibition of CYP3A4 (unknown origin). In kind it is ADME.
Series [20] in a line: Tmax in mouse at 50 mg/kg, sc. In kind it is ADME, organism-based. As to conditions: in vivo.
Series [21] has as its target Sodium channel protein type 5 subunit alpha (Homo sapiens, UniProt Q14524). Description: Inhibition of Nav1.5 (unknown origin).
The nature of series [22]: MRT in mouse at 5 mg/kg, iv. In kind it is ADME, organism-based. The conditions noted are these: in vivo.
Series [23] deals with Voltage-gated inwardly rectifying potassium channel KCNH2 (Homo sapiens, UniProt Q12809). Put plainly: Displacement of MK499 from human ERG.
A short description of series [24]: Volume of distribution at steady state in mouse at 5 mg/kg, iv. In kind it is ADME, organism-based. As to conditions: in vivo, read-out: Vdss.
Series [25] is described as follows: Plasma protein binding in human assessed as unbound fraction. In kind it is ADME, cell-free.
Series [26] addresses T2, Nuclear receptor subfamily 1 group I member 2 (Homo sapiens, UniProt O75469).
T2 sequence (O75469 whole entry): T1 sequence (O75469 whole entry)
Description: Inhibition of human PXR.

Series [27] deals with Cytochrome P450 2C9 (Homo sapiens, UniProt P11712). Description: Reversible inhibition of CYP2C9 (unknown origin). The class given is ADME.
Series [28] in a line: AUC in mouse at 50 mg/kg, sc. As to conditions: in vivo. In kind it is ADME, organism-based. Also on record: dose 50 mg/kg, route sc.
A short description of series [29]: Plasma protein binding in Wistar Han rat assessed as unbound fraction. The class given is ADME, cell-free.
Series [30] in a line: Tmax in mouse at 10 mg/kg, sc. In kind it is ADME, organism-based. The conditions noted are these: in vivo.
Series [31] can be described thus: Clearance in mouse at 5 mg/kg, iv. The class given is ADME, organism-based. The conditions noted are these: in vivo.

Molecules are shown by their SMILES. Values joined by “and” are separate entries in the source; they are usually repeats but may differ in a detail not shown here. Equal entries are not always repeated. Active and inactive are the calls of the source. The rule behind the calls is not given here.

Cytochrome P450 3A4, sequence (P08684 whole entry): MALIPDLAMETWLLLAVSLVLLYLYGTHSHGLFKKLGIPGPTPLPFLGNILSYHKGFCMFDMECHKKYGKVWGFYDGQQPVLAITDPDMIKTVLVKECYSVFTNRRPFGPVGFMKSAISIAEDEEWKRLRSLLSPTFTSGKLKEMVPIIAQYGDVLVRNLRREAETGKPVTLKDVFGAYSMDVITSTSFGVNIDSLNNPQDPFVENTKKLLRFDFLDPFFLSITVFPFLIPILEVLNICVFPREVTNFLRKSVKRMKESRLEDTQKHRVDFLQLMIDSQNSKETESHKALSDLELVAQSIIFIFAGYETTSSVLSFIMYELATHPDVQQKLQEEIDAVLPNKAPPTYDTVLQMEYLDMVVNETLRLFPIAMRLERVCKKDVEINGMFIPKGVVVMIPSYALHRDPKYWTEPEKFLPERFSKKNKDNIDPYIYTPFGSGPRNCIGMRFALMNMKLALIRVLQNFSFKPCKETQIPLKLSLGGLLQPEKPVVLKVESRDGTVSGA
CYP3A4, sequence (P08684 whole entry): as above
Sodium channel protein type 5 subunit alpha, sequence (Q14524 whole entry): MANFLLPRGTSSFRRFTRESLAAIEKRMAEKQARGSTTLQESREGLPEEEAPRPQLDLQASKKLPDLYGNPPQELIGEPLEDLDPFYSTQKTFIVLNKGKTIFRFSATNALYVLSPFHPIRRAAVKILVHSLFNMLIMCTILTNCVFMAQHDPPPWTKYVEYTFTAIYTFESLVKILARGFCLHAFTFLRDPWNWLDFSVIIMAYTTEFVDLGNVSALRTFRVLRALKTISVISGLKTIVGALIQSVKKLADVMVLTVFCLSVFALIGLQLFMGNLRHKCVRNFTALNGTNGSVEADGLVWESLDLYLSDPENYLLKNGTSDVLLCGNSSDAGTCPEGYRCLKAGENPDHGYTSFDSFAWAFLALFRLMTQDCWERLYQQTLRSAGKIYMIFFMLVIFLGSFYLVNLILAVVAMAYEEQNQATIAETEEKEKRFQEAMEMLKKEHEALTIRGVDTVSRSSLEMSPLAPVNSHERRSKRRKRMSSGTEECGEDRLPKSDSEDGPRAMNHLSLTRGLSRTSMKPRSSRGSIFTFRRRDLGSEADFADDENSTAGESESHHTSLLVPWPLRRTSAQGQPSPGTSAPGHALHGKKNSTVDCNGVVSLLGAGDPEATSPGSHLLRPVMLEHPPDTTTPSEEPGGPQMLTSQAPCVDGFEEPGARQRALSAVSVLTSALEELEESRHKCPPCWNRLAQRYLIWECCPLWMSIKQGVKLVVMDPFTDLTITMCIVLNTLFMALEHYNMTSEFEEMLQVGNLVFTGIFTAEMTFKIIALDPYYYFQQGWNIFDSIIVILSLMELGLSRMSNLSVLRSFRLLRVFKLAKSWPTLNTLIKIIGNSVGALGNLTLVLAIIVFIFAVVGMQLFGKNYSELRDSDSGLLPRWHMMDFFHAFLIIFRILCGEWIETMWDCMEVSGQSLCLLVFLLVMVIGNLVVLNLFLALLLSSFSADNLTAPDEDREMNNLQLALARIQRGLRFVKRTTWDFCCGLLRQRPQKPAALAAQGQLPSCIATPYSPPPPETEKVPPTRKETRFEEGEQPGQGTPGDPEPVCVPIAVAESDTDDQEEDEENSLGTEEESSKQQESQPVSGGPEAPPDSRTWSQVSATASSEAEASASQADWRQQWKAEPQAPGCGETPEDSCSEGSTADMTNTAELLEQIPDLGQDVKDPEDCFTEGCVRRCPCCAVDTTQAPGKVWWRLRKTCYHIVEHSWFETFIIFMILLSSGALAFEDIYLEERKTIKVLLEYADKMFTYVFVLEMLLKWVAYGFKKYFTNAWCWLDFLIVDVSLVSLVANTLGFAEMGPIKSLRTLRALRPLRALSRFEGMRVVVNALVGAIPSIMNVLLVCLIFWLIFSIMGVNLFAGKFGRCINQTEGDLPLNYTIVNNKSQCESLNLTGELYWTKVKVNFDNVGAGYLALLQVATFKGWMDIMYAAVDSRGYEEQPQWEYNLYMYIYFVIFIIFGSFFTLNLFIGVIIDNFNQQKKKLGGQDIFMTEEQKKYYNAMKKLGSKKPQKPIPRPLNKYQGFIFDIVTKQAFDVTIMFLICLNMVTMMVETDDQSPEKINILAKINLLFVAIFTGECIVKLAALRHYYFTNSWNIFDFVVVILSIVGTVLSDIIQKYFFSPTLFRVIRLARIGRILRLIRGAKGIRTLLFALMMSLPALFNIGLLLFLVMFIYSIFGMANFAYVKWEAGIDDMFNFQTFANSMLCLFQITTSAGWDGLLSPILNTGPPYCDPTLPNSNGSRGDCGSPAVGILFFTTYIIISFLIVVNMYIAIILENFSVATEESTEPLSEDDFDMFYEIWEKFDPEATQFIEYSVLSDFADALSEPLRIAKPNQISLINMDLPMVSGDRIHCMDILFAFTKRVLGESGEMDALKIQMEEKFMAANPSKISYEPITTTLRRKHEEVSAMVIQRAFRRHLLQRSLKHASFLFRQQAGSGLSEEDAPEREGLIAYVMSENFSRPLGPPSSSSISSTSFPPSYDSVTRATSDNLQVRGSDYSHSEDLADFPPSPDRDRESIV
Voltage-gated inwardly rectifying potassium channel KCNH2, sequence (Q12809 whole entry): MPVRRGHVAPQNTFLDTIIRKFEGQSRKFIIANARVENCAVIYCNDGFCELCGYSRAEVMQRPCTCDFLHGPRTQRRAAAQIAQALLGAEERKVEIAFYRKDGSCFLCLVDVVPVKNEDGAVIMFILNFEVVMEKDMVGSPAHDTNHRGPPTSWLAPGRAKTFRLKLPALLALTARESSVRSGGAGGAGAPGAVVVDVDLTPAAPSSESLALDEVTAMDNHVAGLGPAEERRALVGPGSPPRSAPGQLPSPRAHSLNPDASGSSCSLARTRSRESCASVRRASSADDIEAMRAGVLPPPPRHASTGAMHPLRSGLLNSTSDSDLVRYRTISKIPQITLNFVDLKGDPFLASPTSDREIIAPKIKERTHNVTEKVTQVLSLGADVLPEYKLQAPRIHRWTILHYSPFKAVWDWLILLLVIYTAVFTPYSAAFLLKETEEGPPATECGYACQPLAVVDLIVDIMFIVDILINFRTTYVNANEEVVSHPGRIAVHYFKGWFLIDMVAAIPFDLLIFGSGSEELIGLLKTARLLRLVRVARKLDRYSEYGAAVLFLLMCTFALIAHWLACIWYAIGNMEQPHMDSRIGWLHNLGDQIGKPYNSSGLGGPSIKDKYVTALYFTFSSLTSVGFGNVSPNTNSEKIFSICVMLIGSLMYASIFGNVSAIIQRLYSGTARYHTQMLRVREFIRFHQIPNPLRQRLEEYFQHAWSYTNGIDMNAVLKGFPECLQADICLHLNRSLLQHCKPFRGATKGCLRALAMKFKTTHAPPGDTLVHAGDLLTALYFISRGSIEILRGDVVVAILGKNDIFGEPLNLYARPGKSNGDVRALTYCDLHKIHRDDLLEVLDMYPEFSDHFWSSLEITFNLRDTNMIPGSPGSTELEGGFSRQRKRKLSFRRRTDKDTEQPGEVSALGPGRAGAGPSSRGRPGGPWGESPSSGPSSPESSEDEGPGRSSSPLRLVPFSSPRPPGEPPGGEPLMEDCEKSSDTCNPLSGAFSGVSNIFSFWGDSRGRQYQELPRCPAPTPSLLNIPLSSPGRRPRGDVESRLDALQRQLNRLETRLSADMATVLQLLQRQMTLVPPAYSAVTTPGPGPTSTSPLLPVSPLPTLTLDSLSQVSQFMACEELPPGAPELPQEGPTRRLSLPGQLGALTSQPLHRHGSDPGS
Cytochrome P450 2C9, sequence (P11712 whole entry): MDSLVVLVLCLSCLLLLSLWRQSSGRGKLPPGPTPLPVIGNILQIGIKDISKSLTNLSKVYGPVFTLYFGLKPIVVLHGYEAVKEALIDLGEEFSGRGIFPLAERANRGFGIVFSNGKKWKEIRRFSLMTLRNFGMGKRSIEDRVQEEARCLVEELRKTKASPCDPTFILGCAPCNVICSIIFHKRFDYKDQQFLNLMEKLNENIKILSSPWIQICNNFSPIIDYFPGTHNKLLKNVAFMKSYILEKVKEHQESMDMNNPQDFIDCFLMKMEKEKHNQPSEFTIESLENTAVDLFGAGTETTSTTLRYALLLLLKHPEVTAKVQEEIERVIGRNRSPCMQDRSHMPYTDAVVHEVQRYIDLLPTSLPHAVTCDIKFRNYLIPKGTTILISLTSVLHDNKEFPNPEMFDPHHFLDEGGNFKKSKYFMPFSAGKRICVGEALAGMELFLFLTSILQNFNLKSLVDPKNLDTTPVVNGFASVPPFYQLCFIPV
Cytochrome P450 2D6, sequence (P10635 whole entry): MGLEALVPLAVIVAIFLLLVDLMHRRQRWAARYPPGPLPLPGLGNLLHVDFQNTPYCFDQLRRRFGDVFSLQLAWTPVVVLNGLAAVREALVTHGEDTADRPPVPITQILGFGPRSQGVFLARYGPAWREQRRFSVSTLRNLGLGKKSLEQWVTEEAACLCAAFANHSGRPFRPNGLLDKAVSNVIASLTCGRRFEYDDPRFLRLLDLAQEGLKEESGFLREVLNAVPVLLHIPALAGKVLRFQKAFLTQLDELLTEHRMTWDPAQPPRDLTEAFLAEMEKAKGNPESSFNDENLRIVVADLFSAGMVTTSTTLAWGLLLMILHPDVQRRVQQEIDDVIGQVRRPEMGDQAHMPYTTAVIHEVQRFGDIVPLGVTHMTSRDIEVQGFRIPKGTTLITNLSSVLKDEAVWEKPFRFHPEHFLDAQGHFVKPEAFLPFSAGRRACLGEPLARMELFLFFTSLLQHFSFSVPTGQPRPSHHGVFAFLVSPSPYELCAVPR

As usually defined, the IC50 is the midpoint of a concentration-inhibition curve. Read a low IC50 as inhibition by little substance. Consider `Cc1ccc(-c2cccc(S(N)(=O)=O)c2-c2nnn[nH]2)cc1`, for which the IC50 is 3.9 nM and 3.7 nM in series [1]; 57.5 nM and 57 nM in series [4]; 64 nM in series [6]. Moreover, the Selectivity ratio is 215 in series [2], 2230 in series [3] and 400 in series [5]. In series [7], the result was inactive. In addition, the MITC95 in series [8] worked out at 1.48 µM; in series [9], 13.8 µM; in series [10], 127 µM.

On to `Cc1ccc(-c2cccc(S(=O)(=O)O)c2-c2nnn[nH]2)cc1`, for which the IC50 in series [1] was 4960 nM; in series [4], 8640 nM; in [6], 2360 nM.

As to `OCc1ccc(-c2cccc(O)c2-c2nnn[nH]2)cc1`, the half-inhibitory concentration (IC50) is 704 nM in series [1], 7200 nM in series [4] and greater than 20000 nM in series [6].

With `NS(=O)(=O)c1cccc(-c2ccnc(CO)c2)c1-c1nn[nH]n1`, the MITC95 in [8] was found to be 0.39 µM; in series [9], 50 µM.

With `Cc1ccc(-c2cccc(C(=O)O)c2-c2nnn[nH]2)cc1`, the values for the IC50 in [1], in series [4] and in series [6] were 3170 nM, 6960 nM and 2410 nM, respectively.

As for `NS(=O)(=O)c1cncc(-c2ccc(CO)cc2)c1-c1nn[nH]n1`, the IC50 in [1] is 21 nM; in series [4], 670 nM; in series [6], 678 nM. In addition, the MITC95 stood at 1.56 µM in series [8] and 100 µM in series [10].

On to `NS(=O)(=O)c1ccnc(-c2ccc(CO)cc2)c1-c1nn[nH]n1`, for which the values for the 50% inhibitory concentration (IC50) in series [1], in series [4] and in series [6] were 36 nM, 4130 nM and 767 nM, respectively. The MITC95 was 2.3 µM in series [8], 37 µM in series [9] and greater than 200 µM in series [10].

As to `CCCCc1nc2ccc(O)cc2c(=O)n1Cc1ccc(-c2ccccc2-c2nnn[nH]2)cc1`, the values for the IC50 in series [1] and in [4] were 52 nM and 13 nM, respectively.

As usually defined, the Cmax is the maximum level reached in the sampled fluid or tissue. As a reminder, the Emax is the maximal effect, on the per cent scale that the assay sets. For orientation: fraction unbound means the share of the substance not bound to proteins or other matrix. For orientation: AUC means the area under the concentration-time curve, a measure of exposure. As a reminder, the Tmax is the time at which the peak concentration occurs. By MRT is commonly meant a mean duration of stay, worked out from the concentration-time curve. One may read the clearance as a measure of how efficiently the substance is removed, as volume per time. High values mean a high capacity for elimination, low ones a low capacity for elimination. Take `NS(=O)(=O)c1nccc(-c2ccc(CO)cc2)c1-c1nnn[nH]1`: the values for the highest concentration (Cmax) in series [11] and in series [14] were 69.1 µM and 13.4 µM, respectively. In addition, the maximum response (Emax) at 30 µM in series [12] stood at 1.94%. In addition, the fraction unbound is 0.43 in series [13], 0.23 in series [25] and 0.3 in series [29]. In addition, the AUC was determined as 27.4 µM·h in [15], 27.1 µM·h in series [16] and 111 µM·h in series [28]. For the same molecule, the IC50 shift in series [17] is 1. For the same molecule, the IC50 in series [18] was greater than 30000 nM; in series [19], greater than 30000 nM; in series [21], greater than 30000 nM; in series [23], greater than 60000 nM; in [26], greater than 30000 nM; in series [27] it was greater than 30000 nM. Further, the time of peak concentration (Tmax) in series [20] amounted to 30 min; in [30] it was 49.8 min. In [22], this molecule returned an MRT of 312 min. Also, the Vd in series [24] was 2.97 L/kg. The molecule further returned a clearance in series [31] of 9.33 mL/min/kg.

Take `O=C(O)COc1ccc2c(c1)CCN(C(=O)C(CS)CCc1ccccc1)C2C(=O)O` (stereo not given): the IC50 in series [1] was determined as 0.243 nM; in series [4], 2.48 nM; in series [6], 0.155 nM.

In the case of `Nc1cc(-c2nnn[nH]2)c(S(N)(=O)=O)cc1S(N)(=O)=O`, the IC50 in series [1] amounted to 3.3 nM; in series [4], 7 nM; in [6] it was 17 nM.

Regarding `NS(=O)(=O)c1cccc(-c2ccc(CO)cc2)c1-c1nn[nH]n1`, the IC50 stood at 2.4 nM in series [1], 58 nM in series [4] and 46 nM in series [6]. The MITC95 in series [10] worked out at 50 µM.
